Tests used:
[1] = The drug is tested on Clostridium sporogenes strain: ATCC15579 for biotransformation. The drug concentrations were measured before and after a 12-h incubation by liquid-chromatography-coupled mass spectrometry (LC–MS); conditions: 2 µM
[2] = segatella copri, 12 h, 2 µM
Description: The drug is tested on Prevotella copri strain: DSM18205 for biotransformation. The drug concentrations were measured before and after a 12-h incubation by liquid-chromatography-coupled mass spectrometry (LC–MS)

[3] = The drug is tested on Bacteroides finegoldii strain: DSM17565 for biotransformation. The drug concentrations were measured before and after a 12-h incubation by liquid-chromatography-coupled mass spectrometry (LC–MS); conditions: 2 µM
[4] = bacteroides fragilis, 12 h, 2 µM
Description: The drug is tested on Bacteroides fragilis strain: DS-208 for biotransformation. The drug concentrations were measured before and after a 12-h incubation by liquid-chromatography-coupled mass spectrometry (LC–MS)

[5] = akkermansia muciniphila, 12 h, 2 µM
Description: The drug is tested on Akkermansia muciniphila strain: ATCC BAA-835 for biotransformation. The drug concentrations were measured before and after a 12-h incubation by liquid-chromatography-coupled mass spectrometry (LC–MS)

[6] = The drug is tested on Bacteroides fragilis strain: HMW610 for biotransformation. The drug concentrations were measured before and after a 12-h incubation by liquid-chromatography-coupled mass spectrometry (LC–MS); conditions: 2 µM
[7] = bacteroides eggerthii, 12 h, 2 µM
Description: The drug is tested on Bacteroides eggerthii strain: DSM20697 for biotransformation. The drug concentrations were measured before and after a 12-h incubation by liquid-chromatography-coupled mass spectrometry (LC–MS)

[8] = bacteroides fragilis, 12 h, 2 µM; remark: listed apart in the source
Description: The drug is tested on Bacteroides fragilis strain: NCTC 9343 for biotransformation. The drug concentrations were measured before and after a 12-h incubation by liquid-chromatography-coupled mass spectrometry (LC–MS)

[9] = The drug is tested on Anaerococcus hydrogenalis strain: DSM7454 for biotransformation. The drug concentrations were measured before and after a 12-h incubation by liquid-chromatography-coupled mass spectrometry (LC–MS); conditions: 2 µM
[10] = bifidobacterium adolescentis, 12 h, 2 µM
Description: The drug is tested on Bifidobacterium adolescentis strain: ATCC 15703 for biotransformation. The drug concentrations were measured before and after a 12-h incubation by liquid-chromatography-coupled mass spectrometry (LC–MS)

[11] = The drug is tested on Dorea formicigenerans strain: ATCC27755 for biotransformation. The drug concentrations were measured before and after a 12-h incubation by liquid-chromatography-coupled mass spectrometry (LC–MS); conditions: 2 µM
[12] = The drug is tested on Bacteroides coprophilus strain: DSM18228 for biotransformation. The drug concentrations were measured before and after a 12-h incubation by liquid-chromatography-coupled mass spectrometry (LC–MS); conditions: 2 µM
[13] = The drug is tested on Bacteroides ovatus strain: ATCC8483 for biotransformation. The drug concentrations were measured before and after a 12-h incubation by liquid-chromatography-coupled mass spectrometry (LC–MS); conditions: 2 µM
[14] = bacteroides thetaiotaomicron, 12 h, 2 µM
Description: The drug is tested on Bacteroides thetaiotaomicron strain: 3731 for biotransformation. The drug concentrations were measured before and after a 12-h incubation by liquid-chromatography-coupled mass spectrometry (LC–MS)

[15] = The drug is tested on Clostridium sp. strain: fecal isolate for biotransformation. The drug concentrations were measured before and after a 12-h incubation by liquid-chromatography-coupled mass spectrometry (LC–MS); conditions: 2 µM
[16] = The drug is tested on Clostridium asparagiforme strain: DSM15981 for biotransformation. The drug concentrations were measured before and after a 12-h incubation by liquid-chromatography-coupled mass spectrometry (LC–MS); type: ADME; parameters: dose 2 uM, timepoint 0 vs 12 hours; conditions: enterocloster asparagiformis, 2 µM
[17] = The drug is tested on Odoribacter splanchnicus strain: fecal isolate for biotransformation. The drug concentrations were measured before and after a 12-h incubation by liquid-chromatography-coupled mass spectrometry (LC–MS); conditions: 2 µM
[18] = The drug is tested on Bacteroides sp. WH2 strain: WH2 for biotransformation. The drug concentrations were measured before and after a 12-h incubation by liquid-chromatography-coupled mass spectrometry (LC–MS); conditions: bacteroides sp. wh2, 12 h, 2 µM
[19] = roseburia intestinalis, 12 h, 2 µM
Description: The drug is tested on Roseburia intestinalis strain: L1-82 for biotransformation. The drug concentrations were measured before and after a 12-h incubation by liquid-chromatography-coupled mass spectrometry (LC–MS)

[20] = The drug is tested on Eubacterium hallii strain: DSM3353 for biotransformation. The drug concentrations were measured before and after a 12-h incubation by liquid-chromatography-coupled mass spectrometry (LC–MS); conditions: anaerobutyricum hallii, 2 µM

Row | SMILES | Bacterial Biotransformation [1] | Bacterial Biotransformation [2] | Bacterial Biotransformation [3] | Bacterial Biotransformation [4] | Bacterial Biotransformation [5] | Bacterial Biotransformation [6] | Bacterial Biotransformation [7] | Bacterial Biotransformation [8] | Bacterial Biotransformation [9] | Bacterial Biotransformation [10] | Bacterial Biotransformation [11] | Bacterial Biotransformation [12] | Bacterial Biotransformation [13] | Bacterial Biotransformation [14] | Bacterial Biotransformation [15] | Bacterial Biotransformation [16] | Bacterial Biotransformation [17] | Bacterial Biotransformation [18] | Bacterial Biotransformation [19] | Bacterial Biotransformation [20]
1 | Cc1nc(Nc2ncc(C(=O)Nc3c(C)cccc3Cl)s2)cc(N2CCN(CCO)CC2)n1.O [DASATINIB] | Compound NOT metabolized | Compound metabolized | Compound metabolized | Compound metabolized | Compound metabolized | Compound metabolized | Compound NOT metabolized | Compound metabolized | Compound NOT metabolized | Compound metabolized | Compound NOT metabolized | Compound NOT metabolized | Compound NOT metabolized | Compound NOT metabolized | Compound metabolized | Compound NOT metabolized | Compound NOT metabolized | Compound NOT metabolized |  | 
2 | CN1CCN(C(=O)O[C@H]2c3nccnc3C(=O)N2c2ccc(Cl)cn2)CC1 [ESZOPICLONE] | Compound NOT metabolized |  |  |  |  | Compound NOT metabolized | Compound NOT metabolized | Compound NOT metabolized | Compound NOT metabolized |  | Compound NOT metabolized | Compound NOT metabolized | Compound NOT metabolized | Compound NOT metabolized | Compound metabolized | Compound NOT metabolized | Compound metabolized | Compound NOT metabolized | Compound NOT metabolized | Compound metabolized
3 | OC(Cn1cncn1)(Cn1cncn1)c1ccc(F)cc1F [FLUCONAZOLE] | Compound metabolized | Compound NOT metabolized | Compound NOT metabolized |  | Compound metabolized | Compound metabolized |  | Compound metabolized | Compound NOT metabolized | Compound NOT metabolized | Compound metabolized | Compound NOT metabolized | Compound metabolized |  | Compound metabolized | Compound NOT metabolized | Compound metabolized | Compound NOT metabolized |  | 
4 | COCCc1ccc(OCC(O)CNC(C)C)cc1.COCCc1ccc(OCC(O)CNC(C)C)cc1.O=C(O)C(O)C(O)C(=O)O (stereo not given) [METOPROLOL TARTRATE] | Compound NOT metabolized |  | Compound NOT metabolized | Compound NOT metabolized |  | Compound NOT metabolized | Compound NOT metabolized | Compound NOT metabolized | Compound NOT metabolized | Compound NOT metabolized | Compound NOT metabolized | Compound NOT metabolized | Compound NOT metabolized |  | Compound NOT metabolized | Compound NOT metabolized | Compound NOT metabolized | Compound NOT metabolized | Compound NOT metabolized | Compound NOT metabolized
